Measurements reported in the CheMixHub viscosity set.

Assay: xn = mol fraction of the nth substance listed

CCCCCCCCCCCCCCCCCC(=O)OC + ClC(Cl)=C(Cl)Cl
viscosity [mPa·s], 101 kPa
Settings	x1 = 0.05	x1 = 0.1	x1 = 0.15	x1 = 0.2	x1 = 0.25	x1 = 0.3
298 K	1.41	1.65	1.8	2.14	2.62	2.93
303 K	1.33	1.55	1.68	2.01	2.36	2.63
308 K	1.24	1.47	1.58	1.89	2.16	2.4
313 K	1.17	1.39	1.47	1.76	1.97	2.2

CCCCCCCCCCCCCCCCCC(=O)OC + ClC=C(Cl)Cl
viscosity [mPa·s], 101 kPa
Settings	x1 = 0.05	x1 = 0.1	x1 = 0.15	x1 = 0.2	x1 = 0.25	x1 = 0.3
298 K	0.77	1.04	1.37	1.73	2.09	2.61
303 K	0.74	0.98	1.3	1.6	1.9	2.39
308 K	0.71	0.93	1.21	1.5	1.77	2.2
313 K	0.68	0.89	1.14	1.4	1.66	2.01

O=Cc1ccccc1 + ClCCCl
viscosity [mPa·s], 101 kPa
Settings	x1 = 0.3909	x1 = 0.8163	x1 = 0.8165	x1 = 0.9064
293.15 K	1.085	1.445	–	–
303.15 K	–	–	1.225	1.285

CC(F)F + FC(F)C(F)(F)F
viscosity [mPa·s], 101 kPa
Settings	x2 = 0.248	x2 = 0.504	x2 = 0.758
298.15 K	0.1447	0.1487	0.1533
313.15 K	0.1172	0.1234	0.13

CC(F)F + FCC(F)(F)F
viscosity [mPa·s], 101 kPa
Settings	x1 = 0.259	x1 = 0.5	x1 = 0.75
298.15 K	0.1801	0.1772	0.1647
313.15 K	0.1504	0.1444	0.1397

O.O.O.O.O.O=S(=O)([O-])[S-].[Na+].[Na+] + N#C[S-].[K+]
101.33 kPa, x2 = 0.3
Settings	viscosity [mPa·s]
294 K	39.21
298 K	31.11
303 K	24.56
308 K	19.44
313 K	15.6
318 K	13.1
323 K	10.89

O.O.O.O.O.O=S(=O)([O-])[S-].[Na+].[Na+] + N#C[S-].[Na+]
101.33 kPa, x2 = 0.3
Settings	viscosity [mPa·s]
308 K	30.26
313 K	23.84
318 K	19.42
323 K	15.54

C[N+](C)(C)CCO.[Cl-] + NCCO
101 kPa
Settings	viscosity [mPa·s]
293.15 K, x1 = 0.091	40.5
293.15 K, x1 = 0.111	48.81
293.15 K, x1 = 0.143	51.72
298.15 K, x1 = 0.125	38.64
303.15 K, x1 = 0.125	30.08
308.15 K, x1 = 0.125	23.81
313.15 K, x1 = 0.091	16.33
313.15 K, x1 = 0.111	20.81
313.15 K, x1 = 0.125	19.3
313.15 K, x1 = 0.143	21.41
318.15 K, x1 = 0.125	15.79
323.15 K, x1 = 0.125	12.88

CCCC[N+](CCCC)(CCCC)CCCC.[Cl-] + N[C@@H](CO)C(=O)O
Settings	viscosity [mPa·s]
323.15 K, 101 kPa, x1 = 0.9	491

CCCC[P+](CCCC)(CCCC)CCCC.[Cl-] + O
Settings	viscosity [mPa·s]
298.15 K, 100 kPa, x1 = 0.008058	1.485

C[N+](C)(C)CCO.[Cl-] + O
Settings	viscosity [mPa·s]
298.15 K, 101.33 kPa, x1 = 0.002	0.9099
